# Results: patent US11046646B2, “Alkylphenyl compounds” (BRISTOL-MYERS SQUIBB COMPANY, priority 2017, dated 2021)
# Experiments:
# [1] = target: S1P3 (EDG3) (Homo sapiens (Human), UniProt Q99500); assay: Receptor [35S] GTPγS binding assay, S1P3; assay type: biochemical; conditions: membranes from EDG3-Gal5-bla HEK293T cells; synthetically prepared phosphorylated compounds
# Method: (§1) Receptor [^35S] GTPγS Binding Assays:
# (§2) Compounds were loaded in a 384 Falcon v-bottom plate (0.5 μL/well in a 11 point, 3-fold dilution). Membranes prepared from S1P1/CHO cells or EDG3-Gal5-bla HEK293T cells (EDG3 equivalent S1P3) were added to the compound plate (40 μL/well, final protein 3 μg/well) with MULTIDROP®. [^35S]GTP (1250 Ci/mmol, Perkin Elmer) was diluted in assay buffer: 20 mM HEPES, pH7.5, 10 mM MgCl2, 150 mM NaCl, 1 mM EGTA(ethylene glycol tetraacetic acid), 1 mM DTT (dithiothreitol), 10 μM GDP, 0.1% fatty acid free BSA, and 10 μg/ml Saponin to 0.4 nM. 40 μL of the [^35S] GTP solution was added to the compound plate with a final concentration of 0.2 nM. The reaction was kept at room temperature for 45 min. At the end of incubation, all the mixtures in the compound plate were transferred to Millipore 384-well FB filter plates via the VELOCITY11® Vprep liquid handler. The filter plate was washed with water 4 times by using the manifold Embla plate washer and dried at 60° C. for 45 min. MicroScint 20 scintillation fluid (30 μL) was added to each well for counting on the Packard TOPCOUNT®. EC50 is defined as the agonist concentration that corresponds to 50% of the Ymax (maximal response) obtained for each individual compound tested.
# [2] = target: S1P1 (Homo sapiens (Human), UniProt P21453); assay: Receptor [35S] GTPγS binding assay, S1P1; assay type: biochemical; conditions: for GTPγS S1P1 EC50 value as compared to Comparative Compound 20: in words; for EC50: membranes from S1P1/CHO cells, synthetically prepared phosphorylated compounds
# Method: as §1, §2
# A smaller value for GTPγS S1P1 EC50 value indicated greater activity for the compound in the GTPγS S1P1 binding assay. Thus the compounds of the present invention may be used in treating, preventing, or curing various S1P1 receptor-related conditions. The compounds have potential use in treating, preventing, or curing autoimmune and inflammatory diseases such as multiple sclerosis, rheumatoid arthritis, inflammatory bowel disease, lupus, psoriasis, or minimizing or reducing rejection of transplanted organs.
# Sequence of S1P1 (P21453 whole entry): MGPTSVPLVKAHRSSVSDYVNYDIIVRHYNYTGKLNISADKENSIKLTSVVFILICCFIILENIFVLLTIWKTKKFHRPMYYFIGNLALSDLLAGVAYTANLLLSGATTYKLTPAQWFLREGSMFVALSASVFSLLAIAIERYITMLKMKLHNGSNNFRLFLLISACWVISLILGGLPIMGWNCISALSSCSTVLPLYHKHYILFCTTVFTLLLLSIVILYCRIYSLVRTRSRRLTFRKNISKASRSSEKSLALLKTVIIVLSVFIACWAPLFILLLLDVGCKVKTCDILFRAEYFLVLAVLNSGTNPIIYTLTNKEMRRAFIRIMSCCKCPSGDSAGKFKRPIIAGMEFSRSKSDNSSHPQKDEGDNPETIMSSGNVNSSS
# Sequence of S1P3 (EDG3) (Q99500 whole entry): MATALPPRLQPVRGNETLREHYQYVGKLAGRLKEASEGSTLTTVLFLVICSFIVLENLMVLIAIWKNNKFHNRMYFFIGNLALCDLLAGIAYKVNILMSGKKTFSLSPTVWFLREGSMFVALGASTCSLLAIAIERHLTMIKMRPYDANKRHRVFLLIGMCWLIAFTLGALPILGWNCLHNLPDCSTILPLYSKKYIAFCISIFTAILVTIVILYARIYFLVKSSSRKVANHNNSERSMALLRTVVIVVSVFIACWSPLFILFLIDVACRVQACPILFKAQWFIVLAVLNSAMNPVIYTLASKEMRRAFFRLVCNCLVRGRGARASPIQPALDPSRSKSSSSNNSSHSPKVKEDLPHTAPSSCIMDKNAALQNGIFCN
EC50 [1] [nM],GTPγS S1P1 EC50 value as compared to Comparative Compound 20 [2],EC50 [2] [nM],SMILES
> 30000,significant improvement,41,"CCCCCCCCc1ccc(CN2CCC(N)(COP(=O)(O)O)C2=O)cc1 (stereo not shown) [Example 14, (3-amino-1-(4-octylbenzyl)-2-oxopyrrolidin-3-yl)methyl dihydrogen phosphate]"
> 60000,significant improvement,161,"CCCCCCCCc1ccc(N2CCC(N)(COP(=O)(O)O)C2=O)c(C)c1 (stereo not shown) [Example 17, (3-amino-1-(2-methyl-4-octylphenyl)-2-oxopyrrolidin-3-yl)methyl dihydrogen phosphate]"
> 60000,–,454,"CCCCCCCCc1ccc(N2CCC(N)(COP(=O)(O)O)C2=O)cc1 (stereo not shown) [Example 18, (3-amino-1-(4-octylphenyl)-2-oxopyrrolidin-3-yl)methyl dihydrogen phosphate]"
> 30000,–,384,"CCCCCCCCc1ccc(N2CCC(N)(COP(=O)(O)O)C2)cc1 (stereo not shown) [compound 20, (3-amino-1-(4-octylphenyl)pyrrolidin-3-yl)methyl dihydrogen phosphate, reference compound]"
